pIC50: −log10 of the molar value. Entries after “also recorded” stand apart in the source; their conditions may differ.
Legend:
[1] = tested on: phenylephrine vasopressor effects; assay: Inhibition of phenylephrine vasopressor effects in anesthetized rabbits; assay type: in vivo; conditions: rabbit, i.v., versus control curve
Method: Animal and Homodynamic Measurements:
The experiments were performed with male rabbits weighing 3 kg, from the CECAL (Centro de Criação de Animais de Laboratório) at Fundação Oswaldo Cruz. The animals were anesthetized with sodium pentobarbital (40 mg/kg) in the ear marginal vein, and anesthesia maintenance was obtained with supplemental intravenous (i.v.) doses of 5 mg/kg as necessary. The […] were tracheomized, inserted with a polyethylene canule, and immobilized with pancuronium bromide (1 mg/kg, i.v.), with supplemental doses of 0.2 mg/kg for each hour of experiment and artificially ventilated with a mechanical fan (Rodent ventilator 7025, Ugo Basile) with a volume of 10 ml/kg and frequency from 40 to 50 incursions/min. The right femoral vein was catheterized for drug administration.
The arterial pressure was monitored through abdominal aorta catheter via the right femoral artery and connected to a quartz transductor Hewlett Packard (1290 A), which was connected to an arterial pressure processor and recorder Hewlett Packard (system 7754 with amplifier 8805 B).
The systolic (SAP) and diastolic (DAP) arterial pressures were obtained directly from the records and the average arterial pressure (AAP) was calculated by DAP's Sum with a third of the differential pressure [[…]]. The cardiac frequency was determined by counting the pressure waves, visualized with the speed increase of the recorder paper.
The cardiac debit (DC) was monitored using an electromagnetic probe, connected to a Skalar flowmeter model MDL 1401. After left thoraxatomy, between the second and third ribs, was made an incision in the pericardium and the heart was exposed to enable the visualization and dissection of the ascending aorta for installation of the electromagnetic probe. The systemic vascular resistance (SVR) was calculated as a quotient of the average arterial pressure by the cardiac debit, multiplied by a conversion factor 80 (SVR=AAP/DC×80) and expressed in dyn/seg/cm-5.
At the conclusion of the anesthetic-surgical procedures, a 15-minute period was allowed for stabilization of the homodynamic parameters. Before any pharmacological manipulation the average arterial pressure, cardiac frequency and cardiac debit measurements were obtained. These values were considered basal homodynamic values.
Dose-Response Curve of the Phenylephrine Vasopressor Effect:
After surgical procedures and stabilization of the homodynamic parameters, a dose-response curve of the phenylephrine pressure effects was performed ([…], i.v.), that were named control curves. […]
The results were expressed as average±standard deviation (E.P.M.) The administration effects of LASSBio 772 with regard to the basal values were analyzed through variance analysis (ANOVA) for repeated measurements. […]

alpha 1B subtype = target: T1, alpha 1B subtype (Rattus norvegicus, UniProt P15823); assay: [3H]prazosin binding assay in rat liver
T1 construct: from tissue; host or cells: rat liver homogenate/membranes
T1 sequence (P15823 1-515): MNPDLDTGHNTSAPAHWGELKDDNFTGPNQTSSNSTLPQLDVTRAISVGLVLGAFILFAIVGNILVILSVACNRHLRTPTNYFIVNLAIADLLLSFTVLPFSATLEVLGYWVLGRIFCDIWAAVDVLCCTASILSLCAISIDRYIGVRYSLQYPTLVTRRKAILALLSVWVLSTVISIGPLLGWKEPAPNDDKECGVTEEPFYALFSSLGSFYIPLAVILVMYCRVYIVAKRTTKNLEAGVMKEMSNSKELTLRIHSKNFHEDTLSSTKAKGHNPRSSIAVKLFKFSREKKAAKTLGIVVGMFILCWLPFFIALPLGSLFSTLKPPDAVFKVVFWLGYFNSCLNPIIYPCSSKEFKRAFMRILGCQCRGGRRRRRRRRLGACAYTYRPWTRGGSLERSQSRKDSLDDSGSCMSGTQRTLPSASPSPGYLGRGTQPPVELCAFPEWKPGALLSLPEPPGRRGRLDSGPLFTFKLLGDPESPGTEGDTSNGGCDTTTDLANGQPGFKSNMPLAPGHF

[2] = tested on: muscarinic cholinergic receptors; assay: Cobaio (guinea pig) trachea contraction induced by carbacol; assay type: cell-based; conditions: 30 microM compound, carbacol 10 microM
Excerpt: Selectivity Assay for Protein G-Coupled, Beta-Adrenergic, Muscarinic Cholinergic and Histaminergic Bioreceptors
Determination of the Inhibitory Potency (IC50) of LASSBio 772 on Vasoconstriction of the Cobaio (Guinea Pig) Trachea
Cobaios albinos from both sexes, weighing between 400 and 600 g were used in this experiment. The animals were sacrificed by cervical displacement and posterior bleed. Then, their tracheas were removed, kept in 5 microM indometacin added Krebs-Henseleit physiologic solution and oxygenated with carbogenic mixture (95% O2 and 5% CO2), proceeding the removal of the connective and adhered adipose tissue. From these tracheas were obtained segments with 4-6 rings, that are sectioned in the opposite side of the smooth musculature, originating strips used in the contractions assay (ARAKIDA et al., J. Pharmacol. Exper. Therap., 287: 633-639, 1998). […]
After the period, the organ is treated with agonists that will induce contractions. […] The tissue viability was evaluated by contraction induction with histamine 100 microM or carbacol 10 microM. […]
The compound LASSBio 772 was evaluated in the concentration of 30 microM as for its relaxation capability in comparison to contractions induced by carbacol, muscarinic cholinergic agonist, at a 10 microM concentration.

Structure (SMILES): COc1ccccc1N1CCN(CCc2ccc3c(c2)OCO3)CC1 [LASSBio 772, 1-(2-1,3-Benzodioxol-5-yl-ethyl)-4-(2-methoxy-phenyl)-piperazine]
- blockade of phenylephrine effects [1]: significantly blocked; also recorded: prevented the phenylephrine hypo-tensor effect
- pIC50 (alpha 1B subtype): 6.35
- inhibition of carbacol-induced contractions [2]: not able to significantly inhibit the contractions; also recorded: did not present any activity
- % of Contraction ([2]; n=3): 122.1±8.6%
